Source: patent US20240182453A1, “NOVEL SUBSTITUTED PYRAZINE-CARBOXAMIDE DERIVATIVES” (Boehringer Ingelheim International GmbH, priority 2022, published 2024)

Biological target: human metabotropic Glutamate 4 receptor (mGluR4) (Homo sapiens (Human), UniProt Q14833)
Assay: Assay A: in vitro testing of mGluR4 potency (glutamate-induced cAMP lowering, HTRF cAMP)
Type: cell-based
Settings: HEK293 cells overexpressing human mGluR4; 10 uM L-glutamic acid, 1 uM forskolin; compounds of the present invention
Method in brief: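 HEK293 cells overexpressing human mGluR4 treated 30 min at room temperature with compound plus 10 uM L-glutamate, 1 uM forskolin, 0.5 mM IBMX, 0.1% BSA, 1% DMSO. cAMP read by HTRF (665/615 nm ratio), normalized to glutamate (100%) and no-glutamate (0%) controls as percent of control.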

human metabotropic Glutamate 4 receptor (mGluR4), sequence (Q14833 33-912): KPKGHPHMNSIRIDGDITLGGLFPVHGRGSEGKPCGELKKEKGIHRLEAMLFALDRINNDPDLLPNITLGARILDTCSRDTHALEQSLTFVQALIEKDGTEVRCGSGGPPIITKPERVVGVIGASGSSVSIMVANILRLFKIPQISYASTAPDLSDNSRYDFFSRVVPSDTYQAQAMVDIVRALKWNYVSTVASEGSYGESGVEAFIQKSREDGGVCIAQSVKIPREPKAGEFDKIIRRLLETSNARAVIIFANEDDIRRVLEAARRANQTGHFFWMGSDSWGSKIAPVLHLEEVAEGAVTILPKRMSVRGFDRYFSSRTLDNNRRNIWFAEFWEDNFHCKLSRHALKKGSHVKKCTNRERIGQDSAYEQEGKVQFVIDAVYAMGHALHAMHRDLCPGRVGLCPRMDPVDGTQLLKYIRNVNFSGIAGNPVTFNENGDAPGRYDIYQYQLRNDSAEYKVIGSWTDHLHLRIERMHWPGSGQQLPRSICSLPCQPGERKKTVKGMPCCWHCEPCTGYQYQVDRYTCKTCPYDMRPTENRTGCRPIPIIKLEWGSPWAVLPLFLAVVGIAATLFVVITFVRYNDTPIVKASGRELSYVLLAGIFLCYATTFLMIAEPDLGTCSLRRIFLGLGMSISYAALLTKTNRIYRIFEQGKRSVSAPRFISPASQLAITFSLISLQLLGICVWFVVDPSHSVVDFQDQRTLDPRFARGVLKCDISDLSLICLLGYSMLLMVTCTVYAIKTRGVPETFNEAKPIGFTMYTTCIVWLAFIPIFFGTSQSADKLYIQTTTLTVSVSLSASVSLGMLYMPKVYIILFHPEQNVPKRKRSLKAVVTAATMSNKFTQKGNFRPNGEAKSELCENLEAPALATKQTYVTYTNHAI

SMILES	IC50 [nM]
COCCCn1c([C@@H](NC(=O)c2cnc(C)cn2)[C@@H](C)OC)nc2cc(OC(F)(F)F)ccc21 [Example 130, N-[(1R,2R)-2-methoxy-1-[1-(3-methoxypropyl)-5-(trifluoromethoxy)-1H-1,3-benzodiazol-2-yl]propyl]-5-methylpyrazine-2-carboxamide]	13
CO[C@H](C)[C@H](NC(=O)c1cnc(C)cn1)c1nc2cc(OC(F)(F)F)ccc2n1C1CC1 [Example 131, N-[(1R,2R)-1-[1-cyclopropyl-5-(trifluoromethoxy)-1H-1,3-benzodiazol-2-yl]-2-methoxypropyl]-5-methylpyrazine-2-carboxamide]	14
Cc1cnc(C(=O)N[C@H](c2nc3ccc(C(F)(F)F)cc3n2CC(F)F)C2CC2)cn1 [Example 138, N-[(S)-cyclopropyl[1-(2,2-difluoroethyl)-6-(trifluoromethyl)-1H-1,3-benzodiazol-2-yl]methyl]-5-methylpyrazine-2-carboxamide]	3
CCn1c([C@@H](NC(=O)c2cnc(C)cn2)[C@@H]2CCOC2)nc2cc(C(F)(F)F)ccc21 [Example 140, N-[(S)-[1-ethyl-5-(trifluoromethyl)-1H-1,3-benzodiazol-2-yl][(3S)-oxolan-3-yl]methyl]-5-methylpyrazine-2-carboxamide]	12
Cc1cnc(C(=O)N[C@H](c2nc3cc(C(F)(F)F)ccc3n2CC(F)F)[C@H]2CCOC2)cn1 [Example 142, N-[(S)-[1-(2,2-difluoroethyl)-5-(trifluoromethyl)-1H-1,3-benzodiazol-2-yl][(3R)-oxolan-3-yl]methyl]-5-methylpyrazine-2-carboxamide]	8
CCn1c([C@@H](NC(=O)c2cnc(C)cn2)[C@H]2CCOC2)nc2cc(F)ccc21 [Example 144, N-[(S)-(1-ethyl-5-fluoro-1H-1,3-benzodiazol-2-yl)[(3R)-oxolan-3-yl]methyl]-5-methylpyrazine-2-carboxamide]	41
Cc1cnc(C(=O)N[C@H](c2nc3ccc(C(F)(F)F)cc3n2CC(F)F)[C@@H]2CCOC2)cn1 [Example 145, N-[(S)-[1-(2,2-difluoroethyl)-6-(trifluoromethyl)-1H-1,3-benzodiazol-2-yl][(3S)-oxolan-3-yl]methyl]-5-methylpyrazine-2-carboxamide]	41
CCn1c([C@@H](NC(=O)c2cnc(C)cn2)[C@]2(O)CCCOC2)nc2cc(C(F)(F)F)ccc21 [Example 149, N-[(R)-[1-ethyl-5-(trifluoromethyl)-1H-1,3-benzodiazol-2-yl][(3R)-3-hydroxyoxan-3-yl]methyl]-5-methylpyrazine-2-carboxamide]	3
CCn1c([C@@H](NC(=O)c2cnc(C)cn2)[C@]2(O)CCCOC2)nc2cc(F)ccc21 [Example 150, N-[(R)-(1-ethyl-5-fluoro-1H-1,3-benzodiazol-2-yl)[(3R)-3-hydroxyoxan-3-yl]methyl]-5-methylpyrazine-2-carboxamide]	14
Cc1cnc(C(=O)N[C@H](c2nc3cc(F)ccc3n2CC(F)F)[C@]2(O)CCCOC2)cn1 [Example 151, N-[(R)-[1-(2,2-difluoroethyl)-5-fluoro-1H-1,3-benzodiazol-2-yl][(3R)-3-hydroxyoxan-3-yl]methyl]-5-methylpyrazine-2-carboxamide]	58
CCn1c([C@@H](NC(=O)c2cnc(C)cn2)[C@]2(O)CCCOC2)nc2ccc(C(F)(F)F)cc21 [Example 152, N-[(R)-[1-ethyl-6-(trifluoromethyl)-1H-1,3-benzodiazol-2-yl][(3R)-3-hydroxyoxan-3-yl]methyl]-5-methylpyrazine-2-carboxamide]	14
CCn1c([C@@H](NC(=O)c2cnc(C)cn2)[C@]2(O)CCCOC2)nc2ccc(F)cc21 [Example 153, N-[(R)-(1-ethyl-6-fluoro-1H-1,3-benzodiazol-2-yl)[(3R)-3-hydroxyoxan-3-yl]methyl]-5-methylpyrazine-2-carboxamide]	30
CCn1c([C@@H](NC(=O)c2cnc(C)cn2)[C@]2(O)CCOC2)nc2cc(Cl)ccc21 [Example 154, N-[(R)-(5-chloro-1-ethyl-1H-1,3-benzodiazol-2-yl)[(3R)-3-hydroxyoxolan-3-yl]methyl]-5-methylpyrazine-2-carboxamide]	84
CCn1c([C@@H](NC(=O)c2cnc(C)cn2)[C@]2(O)CCOC2)nc2ccc(C(F)(F)F)cc21 [Example 155, N-[(R)-[1-ethyl-6-(trifluoromethyl)-1H-1,3-benzodiazol-2-yl][(3R)-3-hydroxyoxolan-3-yl]methyl]-5-methylpyrazine-2-carboxamide]	63
CCn1c([C@@H](NC(=O)c2cnc(C)cn2)[C@]2(O)CCOC2)nc2cc(C(F)(F)F)ccc21 [Example 156, N-[(R)-[1-ethyl-5-(trifluoromethyl)-1H-1,3-benzodiazol-2-yl][(3R)-3-hydroxyoxolan-3-yl]methyl]-5-methylpyrazine-2-carboxamide]	39
Cc1cnc(C(=O)N[C@H](c2nc3ccc(Cl)cc3n2CC(F)F)C2CC2)cn1 [Example 157, N-[(S)-[6-chloro-1-(2,2-difluoroethyl)-1H-1,3-benzodiazol-2-yl](cyclopropyl)methyl]-5-methylpyrazine-2-carboxamid]	6
Cc1cnc(C(=O)N[C@H](c2nc3cc(Cl)ccc3n2CC(F)F)C2CC2)cn1 [Example 158, N-[(S)-[5-chloro-1-(2,2-difluoroethyl)-1H-1,3-benzodiazol-2-yl](cyclopropyl)methyl]-5-methylpyrazine-2-carboxamide]	3
CCn1c([C@@H](NC(=O)c2cnc(C)cn2)[C@@]2(O)CCOC2)nc2cc(C(F)(F)F)ccc21 [Example 167, N-[(R)-[1-ethyl-5-(trifluoromethyl)-1H-1,3-benzodiazol-2-yl][(3S)-3-hydroxyoxolan-3-yl]methyl]-5-methylpyrazine-2-carboxamide]	55
